Laboratory results published in patent US20140242707A1, “Compositions and Methods for Diagnosing Hypercoagulability and Hypocoagulability” (Philadelphia Health & Education Corporation d/b/a Drexel …, priority 2011, published 2014).

System: Pooled normal plasma
Test: Thrombelastography of tissue factor-activated pooled normal plasma (Example 1)
Format: biochemical, human
Procedure: Pooled normal plasma (George King Bio-Medical, Overland Park, Kans., USA) anticoagulated with sodium citrate was utilized for experimentation. The lot of plasma used for all experimentation was #1853, with a prothrombin time of 12.3 sec, an activated partial thromboplastin time of 29.3 sec, and a fibrinogen concentration >250 mg/dl. The final volume for all subsequently described plasma sample mixtures was 359.2 μl. Sample composition consisted of 322 μl of plasma; 10 μl of tissue factor reagent (0.1% final concentration in dH2O; Instrumentation Laboratory, Lexington, Mass., USA), 3.6 μl of dH2O or dH2O containing the organic reductant phenylhydroxylamine (PHA, 0-30 mM final concentration, Sigma-Aldrich, Saint Louis, Mo., USA), 3.6 μl of dimethyl sulfoxide (DMSO) or DMSO with CORM-2 (0-400 μM final concentration; Sigma-Aldrich) and 20 μl of 200 mM CaCl2. PHA was chosen as the agent to convert fibrinogen-associated, heme-bound Fe^+2 to an Fe^+3 state (1978, Castro et al., Biochemistry 17:225-231; 1986, Harrison and Jollow, J Pharmacol Exp Ther 238:1045-1054; 1987, Harrison and Jollow, Mol Pharmacol 32:423-431; 1999, Ciccoli et al., Toxicol Lett 110:57-66). Stock solutions of CORM-2 were made just before each experiment. Tissue factor stock solution was kept on ice prior to use and was remade every two hours.
Plasma sample mixtures were placed in a disposable cup in a computer-controlled thrombelastograph hemostasis system (Model 5000, Haemoscope Corp., Niles, Ill., USA), with addition of CaCl2 as the last step to initiate clotting. Data were collected for 15 min at 37° C. Given that final clot strength is the sine quo non of fibrinogen concentration in plasma (2005, Nielsen et al., Acta Anaesthesiol Scand 49:222-231), and that elastic modulus (G, dyne/cm^2) is a measure of strength that can be determined by all commercially available thrombelastographs/thromboelastometers, G values were subsequently recorded for all samples.
Additional elastic modulus-based parameters previously described were determined for some of the experiments (2009, Nielsen et al., Fibrinolysis 20: 377-380; Nielsen et al., in press, Fibrinolysis; 2005, Nielsen et al., Acta Anaesthesiol Scand 49: 222-231; 2009, Nielsen et al., Blood Coagul Fibrinolysis 20: 448-455). The nomenclature used to describe these phenomena is as follows:
Time to maximum rate of thrombus generation (TMRTG): This is the time interval (min) observed prior to maximum speed of clot growth.
Maximum rate of thrombus generation (MRTG): This is the maximum velocity of clot growth observed (dynes/cm^2/sec).
Total Thrombus Generation (TTG): This is the total area under the velocity curve during clot growth (dynes/cm^2), representing the amount of clot strength generated during clot growth.
Thrombelastographic data are presented as mean±SD. Analyses of the effects of PHA before and after CORM-2 addition to plasma were conducted with one way analysis of variance with Holm-Sidak post hoc test (SigmaStat 3.1, Systat Software, Inc., San Jose, Calif., USA). Comparison between plasma exposed to 10 or 30 mM PHA was performed with an unpaired Student's t-test. The plasmatic strength response to increasing concentrations of CORM-2 was analyzed with one way analysis of variance with Holm-Sidakpost hoc test. Graphical representation of the data was generated with commercially available software (Origin 7.5, OriginLab Corp., Northampton, Mass., USA). A P value of <0.05 was considered significant.

Structure (SMILES)	elastic modulus (G), concentration-response (0-200 μM CORM-2, 5 min, no PHA)	MRTG (100 μM CORM-2)	TMRTG (100 μM CORM-2)	TTG (100 μM CORM-2)	elastic modulus (G) (100 μM CORM-2 vs unexposed plasma)	difference in G, 200 μM vs 100 μM CORM-2 (no PHA)	elastic modulus (G) (plasma exposed to 30 mM PHA 2 min, then 100, 200 or 400 μM CORM-2 5 min)	elastic modulus (G) (PHA 10 mM 2 min prior to 100 μM CORM-2)	MRTG (PHA 10 mM alone)	TMRTG (PHA 10 mM alone)	TTG (PHA 10 mM alone)	elastic modulus (G) (PHA 10 mM alone)	elastic modulus (G) (PHA 30 mM added 5 min after 100 μM CORM-2)	MRTG (PHA 30 mM alone)	TMRTG (PHA 30 mM alone)	TTG (PHA 30 mM alone)	elastic modulus (G) (PHA 30 mM alone)	elastic modulus (G), reduction of CORM-2 mediated increase (PHA 1 or 5 mM 2 min prior to 100 μM CORM-2)	elastic modulus (G) (PHA 10 or 20 mM added 5 min after 100 μM CORM-2)
[C-]#[O+].[C-]#[O+].[C-]#[O+].[C-]#[O+].[C-]#[O+].[C-]#[O+].[Cl][Ru][Cl].[Cl][Ru][Cl] [CORM-2, tricarbonyldichlororuthenium (II) dimer]	sigmoidal increase	12.4 ± 1.4 dynes/cm^2/sec	2.46 ± 0.15 min	272 ± 21 dynes/cm^2	significantly increased	10.1%	no significant increase	–	–	–	–	–	–	–	–	–	–	–	–
ONc1ccccc1 [PHA, phenylhydroxylamine]	–	–	–	–	–	–	–	significantly smaller than plasma not exposed to either compound	3.6 ± 0.9 dynes/cm^2/sec	3.59 ± 0.60 min	99 ± 11 dynes/cm^2	less than the other three conditions	not different from plasma not exposed to either compound	3.9 ± 0.8 dynes/cm^2/sec	3.91 ± 0.70 min	106 ± 8 dynes/cm^2	significantly less than the other three conditions	little effect	negligible effects
